For the assay, the system named is ALP in NHAC (normal human articular chondrocytes). The assay can be described thus: Alkaline Phosphatase (ALP) activity assay: ALP staining and quantitation in NHACs (prevention of chondrocyte hypertrophy). In kind it is cell-based. As to conditions: Chondrocyte, 288 h, human IL-1 beta 10 ng/mL, 12 days; for IC50: Fast Blue RR staining, high content imaging; for Emax: read-out: ALP in NHAC (% Efficacy). The protocol:
The compounds of the present invention were evaluated in the Alkaline Phosphatase (ALP) activity assay to determine the ability of the compounds to prevent chondrocyte hypertrophy in normal human articular chondrocytes (NHACs).
Normal human articular chondrocytes (NHACs) were purchased from PromoCell (Heidelberg, Germany) and grown in Chondrocyte Growth Medium (CGM; Lonza, Walkersville, Md.).
NHACs were expanded in Chondrocyte Growth Medium (CGM) from Lonza until they reached a 60-80% confluency. To initiate differentiation, 7,500 cells were plated/well with indicated test compound dose in 384-well Cell Carrier Ultra plates (Perkin Elmer) with DMEM (SH30022—HyClone) containing 10% FBS (35-015-CV—Corning), 1% Pen/Strep antibiotics (SV30010—HyClone), and 1% Normocin (50 mg/mL—InvivoGen). Cells with test compounds were incubated at 37° C., 5% CO2 for 5 hours and then added human IL-1 beta (AF-200-1B—Peprotech) to each well at a final concentration of 10 ng/mL and incubated at 37° C., 5% CO2 for 12 days.
To detect the presence of hypertrophic cells, NHACs were fixed with 4% paraformaldehyde and Hoechst 33342 (Invitrogen) dye for 30 minutes, rinsed in PBS, then stained with Fast Blue RR Salt (F0500—Sigma) with Naphthol AS-MX Phosphate Alkaline Solution, 0.25% (855—Sigma-Aldrich).
The staining was imaged by fluoresecent microscopy, using the 561 nm wavelength, and/or quantified by high content imaging with the ImageXpress Confocal (Molecular Devices, Sunnyvale, CA). Data analyses were performed with a customized multiwavelength cell-scoring application The activity of the compounds of the present invention in the ALP assay is summarized in Table 2.

What is called IC50 is the concentration at which inhibition is half-maximal. A high value points to a need for much substance.

`Cc1ccc(NC(=O)[C@]23C[C@@]2(c2ccnc(F)c2)[C@H]2O[C@@H]3C[C@@H]2O)cc1C(F)(F)F` (racemic) [Example 11, rac-(1R,2R,4S,5R,6S)-4-(2-fluoropyridin-4-yl)-6-hydroxy-N-(4-methyl-3-(trifluoromethyl)phenyl)-8-oxatricyclo[3.2.1.02,4]octane-2-carboxamide]: the IC50 is greater than 30 µM and the Emax was determined as 0%.

Regarding `COc1cc([C@@]23C[C@]2(C(=O)Nc2cc(C(F)(F)F)cc(C4CC4)n2)[C@H]2C[C@H](O)[C@@H]3O2)ccn1` (racemic) [Example 23, rac-(1R,2R,4S,5R,6S)—N-(6-cyclopropyl-4-(trifluoromethyl)pyridin-2-yl)-6-hydroxy-4-(2-methoxypyridin-4-yl)-8-oxatricyclo[3.2.1.02,4]octane-2-carboxamide], the half-inhibitory concentration (IC50) was greater than 30 µM and the Emax worked out at 4%.

In the case of `Cn1cc([C@@]23C[C@]2(C(=O)Nc2ccc(C#N)c(C(F)(F)F)c2)[C@H]2C[C@H](O)[C@@H]3O2)c(C(F)(F)F)n1` (racemic) [Example 68, rac-(1R,2R,4S,5R,6S)—N-(4-cyano-3-(trifluoromethyl)phenyl)-6-hydroxy-4-(1-methyl-3-(trifluoromethyl)-1H-pyrazol-4-yl)-8-oxatricyclo[3.2.1.02,4]octane-2-carboxamide], the IC50 was greater than 30 µM and the Emax turned out to be 50%.

Consider `Cn1cc([C@@]23C[C@]2(C(=O)Nc2ccc(C(F)(F)F)c(F)c2)[C@H]2C[C@H](O)[C@@H]3O2)c(C(F)(F)F)n1` (racemic) [Example 41, rac-(1R,2R,4S,5R,6S)-N-(3-fluoro-4-(trifluoromethyl)phenyl)-6-hydroxy-4-(1-methyl-3-(trifluoromethyl)-1H-pyrazol-4-yl)-8-oxatricyclo[3.2.1.02,4]octane-2-carboxamide], for which the concentration for half-maximal inhibition (IC50) is 3.1 µM and the Emax was found to be 84%.

Take `Cn1cc([C@@]23C[C@]2(C(=O)Nc2ccc(F)c(C(F)(F)F)c2)[C@H]2C[C@H](O)[C@@H]3O2)c(C(F)(F)F)n1` (racemic) [Example 55, rac-(1R,2R,4S,5R,6S)-N-(4-fluoro-3-(trifluoromethyl)phenyl)-6-hydroxy-4-(1-methyl-3-(trifluoromethyl)-1H-pyrazol-4-yl)-8-oxatricyclo[3.2.1.02,4]octane-2-carboxamide]: the concentration for half-maximal inhibition (IC50) was greater than 30 µM and the Emax was determined as 14%.

In the case of `O=C(Nc1cccc(C(F)(F)F)c1)[C@]12C[C@@]1(c1ccnc(C(F)(F)F)c1)[C@H]1O[C@@H]2C[C@@H]1O` (racemic) [Example 66, rac-(1R,2R,4S,5R,6S)-6-hydroxy-N-(3-(trifluoromethyl)phenyl)-4-(2-(trifluoromethyl)pyridin-4-yl)-8-oxatricyclo[3.2.1.02,4]octane-2-carboxamide], the IC50 was 24 µM and the Emax came out at 62%.

Turning to `COc1cc([C@@]23C[C@]2(C(=O)Nc2cc(C#N)cc(C(F)(F)F)c2)[C@H]2C[C@H](O)[C@@H]3O2)ccn1` (racemic) [Example 72, rac-(1R,2R,4S,5R,6S)—N-(3-cyano-5-(trifluoromethyl)phenyl)-6-hydroxy-4-(2-methoxypyridin-4-yl)-8-oxatricyclo[3.2.1.02,4]octane-2-carboxamide], the IC50 was greater than 30 µM and the Emax turned out to be 37%.

For `CCOc1cc(C(F)(F)F)cc(NC(=O)[C@]23C[C@@]2(c2ccnc(F)c2)[C@H]2O[C@@H]3C[C@@H]2O)n1` (racemic) [Example 8, rac-(1R,2R,4S,5R,6S)—N-(6-ethoxy-4-(trifluoromethyl)pyridin-2-yl)-4-(2-fluoropyridin-4-yl)-6-hydroxy-8-oxatricyclo[3.2.1.02,4]octane-2-carboxamide], the half-inhibitory concentration (IC50) is greater than 30 µM and the Emax worked out at 26%.

In the case of `COc1cc([C@@]23C[C@]2(C(=O)Nc2cc(C(F)(F)F)ccc2OC)[C@H]2C[C@H](O)[C@@H]3O2)ccn1` (racemic) [Example 36, rac-(1R,2R,4S,5R,6S)-6-hydroxy-N-(2-methoxy-5-(trifluoromethyl)phenyl)-4-(2-methoxypyridin-4-yl)-8-oxatricyclo[3.2.1.02,4]octane-2-carboxamide], 18 µM corresponded to half-maximal inhibition (IC50) and the Emax was 65%.

Take `Cc1ccc(NC(=O)[C@]23C[C@@]2(c2cn(C)nc2C(F)(F)F)[C@H]2O[C@@H]3C[C@@H]2O)cc1C(F)(F)F` (racemic) [Example 51, rac-(1R,2R,4S,5R,6S)-6-hydroxy-4-(1-methyl-3-(trifluoromethyl)-1H-pyrazol-4-yl)-N-(4-methyl-3-(trifluoromethyl)phenyl)-8-oxatricyclo[3.2.1.02,4]octane-2-carboxamide]: the IC50 was greater than 30 µM and the Emax was 45%.

In the case of `O=C(Nc1ccc(C(F)(F)F)c(F)c1)[C@]12C[C@@]1(c1ccnc(F)c1)[C@H]1O[C@@H]2C[C@@H]1O` (racemic) [Example 2, rac-(1R,2R,4S,5R,6S)-N-(3-fluoro-4-(trifluoromethyl)phenyl)-4-(2-fluoropyridin-4-yl)-6-hydroxy-8-oxatricyclo[3.2.1.02,4]octane-2-carboxamide], the IC50 is greater than 30 µM and the Emax turned out to be 28%.

Take `COc1cc([C@@]23C[C@]2(C(=O)Nc2cc(F)cc(C(F)(F)F)c2)[C@H]2C[C@H](O)[C@@H]3O2)ccn1` (racemic) [Example 73, rac-(1R,2R,4S,5R,6S)—N-(3-fluoro-5-(trifluoromethyl)phenyl)-6-hydroxy-4-(2-methoxypyridin-4-yl)-8-oxatricyclo[3.2.1.02,4]octane-2-carboxamide]: the concentration for half-maximal inhibition (IC50) is greater than 30 µM and the Emax came to 49%.

As for `Cc1ccc(C(F)(F)F)cc1NC(=O)[C@]12C[C@@]1(c1ccnc(F)c1)[C@H]1O[C@@H]2C[C@@H]1O` (racemic) [Example 13, rac-(1R,2R,4S,5R,6S)-4-(2-fluoropyridin-4-yl)-6-hydroxy-N-(2-methyl-5-(trifluoromethyl)phenyl)-8-oxatricyclo[3.2.1.02,4]octane-2-carboxamide], the IC50 is greater than 30 µM and the Emax is 40%.

Turning to `Cn1cc([C@@]23C[C@]2(C(=O)Nc2cc(C(F)(F)F)ccc2C#N)[C@H]2C[C@H](O)[C@@H]3O2)c(C(F)(F)F)n1` (racemic) [Example 69, rac-(1R,2R,4S,5R,6S)—N-(2-cyano-5-(trifluoromethyl)phenyl)-6-hydroxy-4-(1-methyl-3-(trifluoromethyl)-1H-pyrazol-4-yl)-8-oxatricyclo[3.2.1.02,4]octane-2-carboxamide], the IC50 came to 1.8 µM and the Emax is 88%.

For the molecule `Cn1cc([C@@]23C[C@]2(C(=O)Nc2ccc(Cl)c(C(F)(F)F)c2)[C@H]2C[C@H](O)[C@@H]3O2)c(C(F)(F)F)n1` (racemic) [Example 58, rac-(1R,2R,4S,5R,6S)—N-(4-chloro-3-(trifluoromethyl)phenyl)-6-hydroxy-4-(1-methyl-3-(trifluoromethyl)-1H-pyrazol-4-yl)-8-oxatricyclo[3.2.1.02,4]octane-2-carboxamide], the IC50 was greater than 30 µM and the Emax worked out at 29%.

As to `Cn1cc([C@@]23C[C@]2(C(=O)Nc2cc(Cl)cc(C(F)(F)F)c2)[C@H]2C[C@H](O)[C@@H]3O2)c(C(F)(F)F)n1` (racemic) [Example 59, rac-(1R,2R,4S,5R,6S)-N-(3-chloro-5-(trifluoromethyl)phenyl)-6-hydroxy-4-(1-methyl-3-(trifluoromethyl)-1H-pyrazol-4-yl)-8-oxatricyclo[3.2.1.02,4]octane-2-carboxamide], the concentration for half-maximal inhibition (IC50) was greater than 30 µM and the Emax is 35%.
